The term IC50 denotes the concentration at which inhibition is half-maximal.

Where a SMILES comes first, the peptide text is derived from it. The star is where a group is joined. Cbz = O=C(OCc1ccccc1)*

For test [1], the system named is LRP-1. Briefly: 125I-α2M* binding to Mv1Lu cells at pH 7.4. The settings on record: for ^125I-α2M* binding to LRP-1: 10 μg/ml, neutral pH, Mv1Lu cells; for ^125I-α2M* binding: 10 μM protein, pH 7.4, Mv1Lu. More on the design: species or system mink.
For test [2], the target named is acidic pH binding sites (Neogale vison, UniProt A0A8C7BSJ2). Briefly: Specific binding of 125I-ligands to Mv1Lu cells at acidic pH. Further details: species or system mink. The settings on record: for Specific binding of ^125I-α2M*: 10 μM protein, pH 5.5, Mv1Lu.
For test [3], the system named is Mv1Lu cells. The experiment in a line: [methyl-3H] thymidine incorporation (DNA synthesis), Mv1Lu cells. The test is classed as cell-based, mink. The settings on record: insulin 10 nM or cyclic RGD peptide 0.01 μg/ml alone. In general terms: Incorporation of labelled thymidine or its analogues reports DNA synthesis.
A further test concerns IRS-2. The experiment in a line: 32P metabolic labeling and immunoprecipitation of IRS-2, Mv1Lu cells. The class given is cell-based, mink. The following applies: for Effect of proteolysis inhibitors on IGFBP-3-induced mobility change of IRS-2: Mv1Lu, 1 hr prior to and during IGFBP-3 treatment.
In test [4] the target is T1, LRP-1 (Mus musculus, UniProt Q91ZX7).
T1 construct: endogenous in cells; host or cells: MEF (mouse embryonic fibroblasts)
Briefly: 125I-α2M* binding to MEF cells at pH 7.4. The settings on record: for ^125I-α2M* binding: 10 μM protein, pH 7.4, MEF.

Test [5] concerns the target T2, acidic pH binding sites (Mus musculus, UniProt P14824).
T2 sequence (P14824 2-673): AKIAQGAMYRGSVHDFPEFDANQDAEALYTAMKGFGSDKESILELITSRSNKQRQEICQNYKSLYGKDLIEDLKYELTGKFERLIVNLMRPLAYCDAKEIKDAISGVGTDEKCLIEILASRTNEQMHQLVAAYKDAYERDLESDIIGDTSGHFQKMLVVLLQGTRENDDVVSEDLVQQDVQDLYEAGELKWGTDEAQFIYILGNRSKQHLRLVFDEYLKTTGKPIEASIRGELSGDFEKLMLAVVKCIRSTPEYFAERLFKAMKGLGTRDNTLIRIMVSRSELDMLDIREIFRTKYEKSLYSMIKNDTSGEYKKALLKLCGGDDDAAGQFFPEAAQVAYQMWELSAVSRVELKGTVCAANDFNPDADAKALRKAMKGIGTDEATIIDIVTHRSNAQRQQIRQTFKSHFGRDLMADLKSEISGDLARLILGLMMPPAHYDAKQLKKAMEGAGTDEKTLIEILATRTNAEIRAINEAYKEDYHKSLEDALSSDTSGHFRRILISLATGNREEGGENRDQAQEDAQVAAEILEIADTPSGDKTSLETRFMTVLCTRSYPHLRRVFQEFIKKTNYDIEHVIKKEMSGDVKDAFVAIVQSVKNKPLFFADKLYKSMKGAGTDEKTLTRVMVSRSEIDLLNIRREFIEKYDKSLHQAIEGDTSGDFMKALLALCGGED
The experiment in a line: Specific binding of 125I-ligands to MEF cells at acidic pH. The settings on record: for Specific binding of ^125I-α2M*: 10 μM protein, pH 5.5, MEF; for Inhibition of ^125I-α2M* binding to cells: MEF cells, pH 5.5, verapamil and W-5 at 100 μM.

Test [6] addresses T2, acidic pH binding sites. The experiment in a line: Specific binding of 125I-ligands to PEA-13 cells at acidic pH. More on the design: endogenous in cells; host or cells: PEA-13 (LRP-1-deficient mouse embryonic fibroblasts). The following applies: for Specific binding of ^125I-α2M*: 10 μM protein, pH 5.5, PEA-13.
The test system of test [7] is Mv1Lu cells. Briefly: Internalization and degradation of cell surface-bound 125I-TGF-β1 or 125I-α2M*, Mv1Lu cells. The settings on record: 10 μM, pH 7.4, 1 hr at 37° C. The test is classed as cell-based, mink. The method, then:
After 1 hr at 37° C., the medium was collected and precipitated with 10% trichloroacetic acid (TCA). The TCA-soluble radioactive material in the medium represented the cellular degradation products of 125I-TGF-β1 or 125I-α2M*. The cells were then treated with trypsin (5 mg/ml), maintained for 20 min at 0° C. and centrifuged. The radioactivity in the supernate and cell pellets represented cell surface-bound and internalized 125I-TGF-β1 or 125I-α2M*, respectively. The experiments were performed in quadruplicate.
After 2.5 hr, cells were washed, then warmed to 37° C.

T1 sequence (Q91ZX7 20-4545): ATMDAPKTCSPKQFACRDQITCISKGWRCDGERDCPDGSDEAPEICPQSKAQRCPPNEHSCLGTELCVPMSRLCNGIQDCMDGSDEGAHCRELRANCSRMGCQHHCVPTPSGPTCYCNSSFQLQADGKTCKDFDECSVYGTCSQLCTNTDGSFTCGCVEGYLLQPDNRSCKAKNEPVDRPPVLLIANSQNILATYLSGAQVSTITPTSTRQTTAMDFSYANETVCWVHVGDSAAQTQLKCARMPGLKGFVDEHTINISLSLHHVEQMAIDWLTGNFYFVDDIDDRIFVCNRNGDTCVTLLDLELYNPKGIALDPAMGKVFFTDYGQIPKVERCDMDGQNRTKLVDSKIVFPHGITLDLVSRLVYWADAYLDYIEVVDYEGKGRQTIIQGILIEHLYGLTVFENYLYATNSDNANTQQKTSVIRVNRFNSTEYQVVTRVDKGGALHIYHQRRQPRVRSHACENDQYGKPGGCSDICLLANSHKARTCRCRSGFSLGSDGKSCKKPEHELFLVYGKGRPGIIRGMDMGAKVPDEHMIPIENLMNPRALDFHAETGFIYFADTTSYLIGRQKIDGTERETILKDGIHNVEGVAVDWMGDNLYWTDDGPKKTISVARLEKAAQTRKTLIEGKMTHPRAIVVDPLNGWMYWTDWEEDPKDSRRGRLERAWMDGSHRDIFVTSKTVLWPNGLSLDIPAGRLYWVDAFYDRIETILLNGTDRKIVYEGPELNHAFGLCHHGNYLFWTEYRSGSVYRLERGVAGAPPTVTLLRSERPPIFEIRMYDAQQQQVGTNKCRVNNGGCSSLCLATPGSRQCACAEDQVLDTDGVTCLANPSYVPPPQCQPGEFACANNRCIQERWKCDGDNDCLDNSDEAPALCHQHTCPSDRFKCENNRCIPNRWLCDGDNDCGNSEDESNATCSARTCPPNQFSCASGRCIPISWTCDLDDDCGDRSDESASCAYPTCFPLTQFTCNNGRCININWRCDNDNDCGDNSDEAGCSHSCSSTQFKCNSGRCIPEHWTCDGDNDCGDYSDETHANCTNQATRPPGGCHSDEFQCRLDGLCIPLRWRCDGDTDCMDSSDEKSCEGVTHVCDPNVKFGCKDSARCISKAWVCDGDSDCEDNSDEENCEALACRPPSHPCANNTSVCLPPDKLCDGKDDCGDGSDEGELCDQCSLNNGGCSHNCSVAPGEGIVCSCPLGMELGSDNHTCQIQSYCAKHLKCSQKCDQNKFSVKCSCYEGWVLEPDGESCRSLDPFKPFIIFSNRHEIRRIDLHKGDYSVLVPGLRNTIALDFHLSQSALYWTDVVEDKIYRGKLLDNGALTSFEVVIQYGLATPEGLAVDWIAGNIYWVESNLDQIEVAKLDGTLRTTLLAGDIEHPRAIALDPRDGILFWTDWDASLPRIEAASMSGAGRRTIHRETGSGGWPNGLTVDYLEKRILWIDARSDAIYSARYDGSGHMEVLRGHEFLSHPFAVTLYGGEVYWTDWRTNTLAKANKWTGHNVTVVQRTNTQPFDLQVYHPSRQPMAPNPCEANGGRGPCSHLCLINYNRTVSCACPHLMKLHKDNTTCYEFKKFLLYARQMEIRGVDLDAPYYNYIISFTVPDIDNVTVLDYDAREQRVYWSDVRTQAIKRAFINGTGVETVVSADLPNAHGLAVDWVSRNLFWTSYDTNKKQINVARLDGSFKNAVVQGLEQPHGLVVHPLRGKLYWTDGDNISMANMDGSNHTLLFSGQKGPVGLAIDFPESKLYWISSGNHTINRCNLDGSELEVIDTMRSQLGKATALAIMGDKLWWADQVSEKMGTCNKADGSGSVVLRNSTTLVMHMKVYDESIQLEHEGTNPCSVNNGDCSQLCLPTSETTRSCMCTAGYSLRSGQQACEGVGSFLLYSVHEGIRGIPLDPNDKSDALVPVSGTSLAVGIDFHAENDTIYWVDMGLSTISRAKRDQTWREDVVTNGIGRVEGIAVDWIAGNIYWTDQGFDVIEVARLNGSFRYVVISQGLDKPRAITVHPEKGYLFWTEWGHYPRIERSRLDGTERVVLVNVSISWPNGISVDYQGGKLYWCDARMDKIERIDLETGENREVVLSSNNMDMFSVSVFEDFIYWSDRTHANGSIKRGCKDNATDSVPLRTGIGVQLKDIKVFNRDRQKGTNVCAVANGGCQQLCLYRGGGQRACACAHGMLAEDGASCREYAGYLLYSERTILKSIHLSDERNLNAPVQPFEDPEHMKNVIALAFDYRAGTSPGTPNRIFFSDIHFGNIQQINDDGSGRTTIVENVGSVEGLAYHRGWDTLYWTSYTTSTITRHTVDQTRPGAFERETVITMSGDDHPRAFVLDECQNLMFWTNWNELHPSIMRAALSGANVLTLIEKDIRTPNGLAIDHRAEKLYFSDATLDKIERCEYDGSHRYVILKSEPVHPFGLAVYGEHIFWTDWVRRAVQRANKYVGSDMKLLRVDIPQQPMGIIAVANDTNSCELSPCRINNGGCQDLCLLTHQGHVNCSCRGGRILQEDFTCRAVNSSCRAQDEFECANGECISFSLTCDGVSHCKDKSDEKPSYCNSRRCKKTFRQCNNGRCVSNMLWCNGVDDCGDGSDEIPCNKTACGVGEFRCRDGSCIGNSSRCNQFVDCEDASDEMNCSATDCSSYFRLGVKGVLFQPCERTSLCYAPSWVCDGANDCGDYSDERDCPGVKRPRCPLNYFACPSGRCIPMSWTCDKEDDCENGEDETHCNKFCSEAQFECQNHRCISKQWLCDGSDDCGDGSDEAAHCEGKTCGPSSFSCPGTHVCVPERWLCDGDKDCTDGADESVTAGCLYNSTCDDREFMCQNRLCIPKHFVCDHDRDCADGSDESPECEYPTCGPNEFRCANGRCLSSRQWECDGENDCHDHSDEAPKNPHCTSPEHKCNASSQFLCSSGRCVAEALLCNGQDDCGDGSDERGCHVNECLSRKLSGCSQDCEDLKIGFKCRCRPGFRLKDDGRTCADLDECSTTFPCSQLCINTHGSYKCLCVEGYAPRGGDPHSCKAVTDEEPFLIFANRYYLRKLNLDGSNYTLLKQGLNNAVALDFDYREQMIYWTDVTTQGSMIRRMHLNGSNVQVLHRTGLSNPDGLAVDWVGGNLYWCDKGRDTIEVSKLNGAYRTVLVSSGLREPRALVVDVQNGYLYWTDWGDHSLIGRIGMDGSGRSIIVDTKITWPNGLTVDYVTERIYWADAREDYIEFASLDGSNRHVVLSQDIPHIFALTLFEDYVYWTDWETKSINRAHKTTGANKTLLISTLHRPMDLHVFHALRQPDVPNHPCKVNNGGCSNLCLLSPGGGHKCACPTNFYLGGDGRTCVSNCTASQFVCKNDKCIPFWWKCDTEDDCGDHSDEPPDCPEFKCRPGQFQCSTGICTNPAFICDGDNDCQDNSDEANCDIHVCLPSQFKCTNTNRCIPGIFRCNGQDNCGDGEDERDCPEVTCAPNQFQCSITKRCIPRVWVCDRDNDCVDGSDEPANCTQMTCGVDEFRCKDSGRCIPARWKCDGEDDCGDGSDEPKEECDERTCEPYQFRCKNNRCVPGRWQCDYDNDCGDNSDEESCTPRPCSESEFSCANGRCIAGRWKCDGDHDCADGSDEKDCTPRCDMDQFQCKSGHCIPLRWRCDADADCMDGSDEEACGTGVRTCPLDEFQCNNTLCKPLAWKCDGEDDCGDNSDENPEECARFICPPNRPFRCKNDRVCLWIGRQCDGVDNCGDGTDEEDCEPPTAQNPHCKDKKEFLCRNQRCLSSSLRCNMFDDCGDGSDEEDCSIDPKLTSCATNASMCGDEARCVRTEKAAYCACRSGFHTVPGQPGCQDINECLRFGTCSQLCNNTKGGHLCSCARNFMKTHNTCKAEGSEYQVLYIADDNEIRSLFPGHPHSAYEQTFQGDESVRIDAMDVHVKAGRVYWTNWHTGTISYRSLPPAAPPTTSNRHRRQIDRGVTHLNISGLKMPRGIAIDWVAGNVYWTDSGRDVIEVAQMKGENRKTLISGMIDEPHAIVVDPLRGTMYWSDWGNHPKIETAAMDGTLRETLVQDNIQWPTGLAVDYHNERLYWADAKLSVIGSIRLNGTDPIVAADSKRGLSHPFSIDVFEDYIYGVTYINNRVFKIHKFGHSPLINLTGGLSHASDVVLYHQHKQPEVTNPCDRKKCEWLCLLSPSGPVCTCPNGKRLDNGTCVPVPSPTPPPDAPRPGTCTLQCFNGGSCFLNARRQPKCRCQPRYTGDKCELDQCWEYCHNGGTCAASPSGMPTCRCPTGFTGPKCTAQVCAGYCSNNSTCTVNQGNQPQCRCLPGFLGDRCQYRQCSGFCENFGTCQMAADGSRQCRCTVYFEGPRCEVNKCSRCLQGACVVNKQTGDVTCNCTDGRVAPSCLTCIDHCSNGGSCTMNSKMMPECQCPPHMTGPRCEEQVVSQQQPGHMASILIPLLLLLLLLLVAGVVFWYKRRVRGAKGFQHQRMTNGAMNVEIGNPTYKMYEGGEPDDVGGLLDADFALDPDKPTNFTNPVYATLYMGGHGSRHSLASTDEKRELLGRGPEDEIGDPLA
Chain of acidic pH binding sites (Neogale vison, UniProt A0A8C7BSJ2) (A0A8C7BSJ2 entry or part of it): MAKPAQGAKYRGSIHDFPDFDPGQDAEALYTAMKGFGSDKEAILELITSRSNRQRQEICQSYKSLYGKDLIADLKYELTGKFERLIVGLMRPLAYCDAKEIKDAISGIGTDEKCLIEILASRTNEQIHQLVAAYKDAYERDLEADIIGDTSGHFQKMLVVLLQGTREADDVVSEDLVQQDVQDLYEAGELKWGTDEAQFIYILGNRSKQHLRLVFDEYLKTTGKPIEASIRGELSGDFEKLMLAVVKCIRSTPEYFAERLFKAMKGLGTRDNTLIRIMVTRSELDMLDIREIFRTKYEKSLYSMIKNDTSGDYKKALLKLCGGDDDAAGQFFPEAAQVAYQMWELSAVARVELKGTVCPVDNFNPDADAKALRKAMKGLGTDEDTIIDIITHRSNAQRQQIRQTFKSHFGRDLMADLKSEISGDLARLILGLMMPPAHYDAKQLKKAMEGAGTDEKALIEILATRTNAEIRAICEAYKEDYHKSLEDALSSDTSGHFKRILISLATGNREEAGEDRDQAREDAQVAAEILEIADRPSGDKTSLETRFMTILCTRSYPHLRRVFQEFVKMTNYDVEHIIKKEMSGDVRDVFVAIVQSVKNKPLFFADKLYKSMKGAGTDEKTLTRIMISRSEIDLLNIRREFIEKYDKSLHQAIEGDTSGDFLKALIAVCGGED

As to heparin sulfate [reference compound], the “^125I-α2M* binding to LRP-1” value with LRP-1 [1] was “did not significantly affect”. Also, the “Enhancement of ^125I-α2M* binding” value on acidic pH binding sites [2] (1 μg/ml, Mv1Lu cells, pH 5) is ~400%. For the same molecule, on acidic pH binding sites [2] (10 μg/ml, Mv1Lu cells, pH 5), the “Inhibition of ^125I-α2M* binding” value is > 80%.

Consider “cyclo GRGDSPA (cyclic) [cyclic RGD peptide, reference compound]”, for which the “Effect alone on TGF-β1-induced inhibition of DNA synthesis” value in the test with Mv1Lu cells [3] is on record as “Neither insulin (10 nM) nor the cyclic RGD peptide (0.01 μg/ml) alone affected”.

On to `COC[C@@H]([C@H](O)[C@H](O)C(=O)NCC[C@H](C)c1nc(/C=C/C[C@@H]2O[C@]3(C[C@@H](O)[C@@H]2C)O[C@H]([C@H](C[C@H](O)[C@H](C)[C@H](O)[C@H](C)/C=C(C)/C(C)=C/C=C/C(C)=C\C#N)OC)[C@H](OP(=O)(O)O)C3(C)C)co1)N(C)C` [calyculin A, reference compound], for which, in the test on IRS-2, the “Effect of phosphatase inhibitors on IGFBP-3-induced specific dephosphorylation / mobility change of IRS-2” value is “did not appear to affect”.

Take `C=C1[C@@H](O)[C@@H]2O[C@]3(CC[C@H](/C=C/[C@@H](C)[C@@H]4CC(C)=C[C@@]5(O[C@H](C[C@@](C)(O)C(=O)O)CC[C@H]5O)O4)O3)CC[C@H]2O[C@@H]1[C@@H](O)C[C@H](C)[C@H]1O[C@@]2(CCCCO2)CC[C@H]1C` [okadaic acid, reference compound]: the “Effect of phosphatase inhibitors on IGFBP-3-induced specific dephosphorylation / mobility change of IRS-2” value in the test with IRS-2 is recorded as “effectively blocked”.

Take microcystin [reference compound]: the “Effect of phosphatase inhibitors on IGFBP-3-induced specific dephosphorylation / mobility change of IRS-2” value with IRS-2 was “did not appear to affect”.

For `CSCC[C@@H](C=O)NC(=O)[C@H](CC(C)C)NC(=O)[C@H](CC(C)C)NC(C)=O` [calpain inhibitor II, reference compound] (Ac-Leu-Leu-Met-aldehyde), the “Effect of proteolysis inhibitors on IGFBP-3-induced mobility change of IRS-2” value in the test with IRS-2 is “did not affect”.

Take `CC1(C(=O)O)C2CCC(O2)C1(C)C(=O)O` (centres unmarked) [cantharidic acid, reference compound]: the “Effect of phosphatase inhibitors on IGFBP-3-induced specific dephosphorylation / mobility change of IRS-2” value in the test on IRS-2 is recorded as “did not appear to affect”.

Consider Pseudomonas exotoxin: a ligand of LRP-1, for which, in the test with acidic pH binding sites [2] (0.5 μM, Mv1Lu cells, pH 5 or 6), the “Inhibition of ^125I-α2M* binding to cells” value (“Inhibition … to cells” for short) is listed as “did not effectively inhibit”.

Turning to `[O]=[V]([O-])([O-])[O-]` [vanadale, reference compound], in the test on IRS-2, the “Effect of phosphatase inhibitors on IGFBP-3-induced specific dephosphorylation / mobility change of IRS-2” value is “did not appear to affect”.

With transferrin: human transferrin, the “^125I-α2M* binding” value in the test with LRP-1 [4] and in the test on LRP-1 [1] was “did not have a significant effect” each time. Also, the “Specific binding of ^125I-α2M*” value in the test with acidic pH binding sites [5], in the test with acidic pH binding sites [6] and with acidic pH binding sites [2] was “completely blocked” in each case. Moreover, in the test with acidic pH binding sites [2] (Mv1Lu cells, pH 5 or 6, read-out: IC50, inhibition of ^125I-α2M* binding to cells), the concentration for half-maximal inhibition (IC50) is ~0.5 µM.

Regarding “chondroitin sulfate C [reference compound]”, the “^125I-α2M* binding to LRP-1” value in the test on LRP-1 [1] is on record as “did not significantly affect”. For the same molecule, the “Inhibition of ^125I-α2M* binding” value at acidic pH binding sites [2] (Mv1Lu cells, pH 5) is “potent inhibitors”.

For the molecule “native α2M: human α2-macroglobulin purified from plasma”, the 50% inhibitory concentration (IC50) with acidic pH binding sites [6] (PEA-13 cells, acidic pH, read-out: IC50, inhibition of ^125I-α2M* binding) is > 0.4 µM.

Turning to `CC(C)C[C@@H](C=O)NC(=O)[C@H](CC(C)C)NC(=O)[C@H](CC(C)C)NC(=O)OCc1ccccc1` [MG-132, reference compound] (Cbz-Leu-Leu-Leu-aldehyde), the “Effect of proteolysis inhibitors on IGFBP-3-induced mobility change of IRS-2” value in the test with IRS-2 is on record as “did not affect”.

Turning to `NCCCCCCNS(=O)(=O)c1cccc2c(Cl)cccc12` [W-7, reference compound], the “Inhibition … to cells” value at acidic pH binding sites [5] is “less effective inhibitors”.

Consider “chondroitin sulfate A [reference compound]”, for which the “^125I-α2M* binding to LRP-1” value with LRP-1 [1] is listed as “did not significantly affect”. The “Inhibition of ^125I-α2M* binding” value on acidic pH binding sites [2] (Mv1Lu cells, pH 5) was “potent inhibitors”.

On to “chondroitin sulfate B [reference compound]”, for which the “^125I-α2M* binding to LRP-1” value in the test with LRP-1 [1] is on record as “did not significantly affect”. On acidic pH binding sites [2] (Mv1Lu cells, pH 5), the “Inhibition of ^125I-α2M* binding” value is “potent inhibitors”.

Consider `CN(C)c1cccc2c(S(=O)(=O)NCCCCCN)cccc12` [monodansylcadaverine, reference compound], for which the “Inhibition … to cells” value at acidic pH binding sites [5] was “less effective inhibitors”.

In the case of `OCCN1CCN(CCCN2c3ccccc3Sc3ccc(C(F)(F)F)cc32)CC1` [fluphenazine], in the test with Mv1Lu cells [7], the “Degradation of cell surface-bound ^125I-TGF-β1 or ^125I-α2M*” value is “completely inhibits”.

For the molecule `CC(CN1c2ccccc2Sc2ccccc21)N(C)C` (centres unmarked) [promethazine, reference compound], the “Inhibition of ^125I-α2M* binding” value at LRP-1 [4] (MEF cells, pH 7.4) was “almost as effective as trifluoperazine and fluphenazine”. Besides, the “Degradation of cell surface-bound ^125I-TGF-β1 or ^125I-α2M*” value with Mv1Lu cells [7] is on record as “did not exhibit any significant effect”; in the test on Mv1Lu cells [7] (listed as Promethazine) it was “ineffective”. In addition, on acidic pH binding sites [5], the “Inhibition … to cells” value is given as “not effective”.

On to apoE: human apoE, for which the “^125I-α2M* binding” value in the test with LRP-1 [4] and in the test on LRP-1 [1] was “did not have a significant effect” throughout. Further, the “Specific binding of ^125I-α2M*” value in the test with acidic pH binding sites [5], with acidic pH binding sites [6] and with acidic pH binding sites [2] was “completely blocked” throughout.

For `NCCCCCCNS(=O)(=O)c1cccc2ccccc12` [W-5, reference compound], the “Inhibition … to cells” value on acidic pH binding sites [5] was “inactive”.

The record behind these values is patent US7741283B2, “Compositions and methods for inhibiting cell proliferation” (St. Louis University, priority 2003, dated 2010).
